According to patent publication US20240391954A1, “MC4R AGONIST PEPTIDES” (The Regents of the University of Michigan, priority 2021, published 2024):
Positions of bridges follow the written chain, without caps; N, C: chain ends. Non-standard residues stand in square brackets, D forms with d. Residues, ends and D or L forms follow the SMILES beside them. 2Pal = N[C@@H](Cc1ccccn1)C(=O)O; 3Pal = N[C@@H](Cc1cccnc1)C(=O)O; 4Pal = N[C@@H](Cc1ccncc1)C(=O)O; Cit = NC(=O)NCCC[C@H](N)C(=O)O; Nle = CCCC[C@H](N)C(=O)O; Orn = NCCC[C@H](N)C(=O)O; Aib = CC(C)(N)C(=O)O

Assays:
Type in all cases: cell-based
human MC4R = target: T1, human MC4R (Homo sapiens, UniProt P32245); test: split-luciferase cAMP sensor assay, agonist mode (measurement window 1), hMC4R; settings: agonist mode; for EC50: HEK-293 cells stably expressing hMC4R, read-out: MC4R cAMP EC50; for Emax: % maximal activation, read-out: MC4R cAMP % max activation
T1 construct: host or cells: HEK-293 cells stably expressing the GScAMP22F split-luciferase cAMP sensor and hMC4R, G418 selection
T1 sequence (P32245 whole entry): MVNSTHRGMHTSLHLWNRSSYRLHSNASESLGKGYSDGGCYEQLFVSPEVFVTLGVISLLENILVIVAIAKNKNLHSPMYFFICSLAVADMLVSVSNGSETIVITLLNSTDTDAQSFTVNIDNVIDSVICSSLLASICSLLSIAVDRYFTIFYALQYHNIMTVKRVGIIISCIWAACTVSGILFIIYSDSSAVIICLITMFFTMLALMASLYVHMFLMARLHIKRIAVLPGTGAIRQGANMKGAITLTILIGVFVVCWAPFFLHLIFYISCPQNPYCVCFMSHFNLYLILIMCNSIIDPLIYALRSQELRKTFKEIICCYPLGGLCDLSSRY
Summary of the method: (§1)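 Live stable cell lines carrying receptor plus GloSensor cAMP22f split-luciferase, loaded with 4% D-luciferin in serum-free medium (~1% serum estimated during assay). Luminescence recorded during in-line peptide addition; direct agonist effect read in window 1, with 20 μM forskolin as normalization reference. EC50 from four-parameter sigmoid fit.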

human MC3R = target: T2, human MC3R (Homo sapiens, UniProt P41968); test: split-luciferase cAMP sensor assay, agonist mode (measurement window 1), hMC3R; settings: for EC50: HEK-293 cells stably expressing hMC3R, read-out: MC3R cAMP EC50; for EC50 / Emax: agonist mode; for MC4R selectivity vs MC3R: MC4R versus MC3R; for Emax: % maximal activation, read-out: MC3R cAMP % max activation
T2 construct: expressed in transfected cells; host or cells: HEK-293 cells stably expressing the GScAMP22F split-luciferase cAMP sensor (parent reporter line from Promega); MC3R clone generated in-house, G418 selection
T2 sequence (P41968 whole entry): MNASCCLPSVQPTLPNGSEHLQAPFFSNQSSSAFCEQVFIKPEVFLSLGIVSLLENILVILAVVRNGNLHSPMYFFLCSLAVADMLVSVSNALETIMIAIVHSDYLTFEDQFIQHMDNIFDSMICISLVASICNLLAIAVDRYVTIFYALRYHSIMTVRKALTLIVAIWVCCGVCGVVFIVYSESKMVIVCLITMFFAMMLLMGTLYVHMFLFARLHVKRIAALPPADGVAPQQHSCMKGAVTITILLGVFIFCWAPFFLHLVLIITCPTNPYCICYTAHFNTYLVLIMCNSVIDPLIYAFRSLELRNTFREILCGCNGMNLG
Summary of the method: as §1

human MC1R = target: T3, human MC1R (Homo sapiens, UniProt Q01726); test: split-luciferase cAMP sensor assay, agonist mode, hMC1R; settings: MC4R versus MC1R
T3 construct: expressed in transfected cells; host or cells: HEK-293 cells stably expressing hMC1R and the GScAMP22F cAMP sensor
T3 sequence (Q01726 whole entry): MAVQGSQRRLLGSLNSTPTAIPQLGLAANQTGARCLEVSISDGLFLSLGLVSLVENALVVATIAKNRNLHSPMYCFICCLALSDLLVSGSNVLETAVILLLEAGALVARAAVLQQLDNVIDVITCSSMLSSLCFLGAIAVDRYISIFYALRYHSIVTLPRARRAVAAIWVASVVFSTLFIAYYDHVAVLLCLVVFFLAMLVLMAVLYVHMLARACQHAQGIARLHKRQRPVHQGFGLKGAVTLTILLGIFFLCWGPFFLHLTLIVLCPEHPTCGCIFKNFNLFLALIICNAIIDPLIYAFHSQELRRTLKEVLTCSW
Protocol: FIG. 4A-B. (A) Pharmacological properties of exemplary MC4R agonist peptides, including those with improved efficacy in the MC4R+/− mouse (CTX-1211, CTX-1227, and CTX-1228). Concentration-response agonist curves for peptides indicated at the human MC4R (red), human MC3R (blue), human MC5R (green), and human MC1R (black) were determined by a split-luciferase cAMP sensor dynamic assay in HEK-293 cells stably expressing the hMC1R, hMC3R, hMC4R, or hMC5R and the GScAMP22F cAMP sensor. Each data point represents the mean±SEM of two experiments with three replicates each per experiment. Data is normalized to the ECmax of α-MSH. (B) Same as above, for peptides representing reduced activity at the hMC1R. Inset tables indicate EC50 values for the ligand indicated for each receptor.
The assay for the determination of the cAMP response in live cells was described previously. (Yu et al., 2020, Science 368, 428-433; incorporated by reference in its entirety). Cells were seeded at a density of 20,000 cells per well using 384-well poly-D lysine-coated, clear bottom, and black-wall assay plates (Corning Inc. Corning, NJ). Cells were allowed to attach to the plates for 18 to 24 h after which growth media was removed and 20 μl of 4% D-luciferin (Promega) in CO2 independent, serum-free medium (Thermo Fisher Scientific) was added to each well. The luciferase substrate was allowed to permeate the cells for 120 min at 37° C. Intracellular cAMP levels were measured using an FDSS 7000EX Functional Drug Screening System (Hamamatsu Photonics, Hamamatsu, Japan) in the Center for Chemical Genomics at the Life Sciences Institute. This instrument allowed the in-line addition of test-peptides and receptor agonists while simultaneously acquiring the luminescence signal from live cells. Assay read steps were set as follows: baseline acquisition of 2 min, the addition of 10 μl of varying 3× concentrations of test-peptides or vehicle followed by 11 min measurement (measurement window 1), and 10 μl addition of 4× concentration of the endogenous melanocortin agonist α-MSH (Bachem, Bubendorf, Switzerland) followed by an additional 11 min response measurement (measurement window 2). The resulting final concentration of α-MSH was close to the respective receptor EC90 dose for each receptor. Intraplate concentration response curves for α-MSH and SHU-9119 (Phoenix Pharmaceuticals, Burlingame CA) were included as reference controls. A submaximal forskolin (20 μM) concentration was also included to serve as a normalization reference to account for cell number variations and differences in assay transducer efficiency between cell lines.
With this set up it was possible to evaluate the direct effect of the test-peptides on the MC3R and MC4R cell lines during measurement window 1, while the antagonist profile in the presence of EC90 α-MSH was determined on measurement window 2. For data analysis baseline luminescence (i.e. the maximum luminescence signal from the initial 0 to 2 min window) was subtracted from the maximum luminescence obtained during measurement window 1 (2 to 13 min) and measurement window 2 (13 to 24 min) to yield the test-peptide elicited responses. EC50 or IC50 potency values were determined by non-linear regression by fitting the data to a sigmoid four-parameter variable slope model using the GraphPad Prism version 8.4 software package (San Diego CA).

With `CC1(C)NC(=O)CSC[C@@H](C(N)=O)NC(=O)[C@H](Cc2ccccc2)NC(=O)[C@H](CCCNC(=N)N)NC(=O)[C@@H](Cc2ccccc2)NC(=O)[C@H](CCCNC(N)=O)NC1=O` [CTX-1652, Thioether-cyclo(Aib-Cit-D-Phe-Arg-Phe-Cys)] ({CH2CO}-[Aib][Cit][dF]RFC-NH2; thioether N-6) the EC50 (human MC4R) was over 10000 nM, the EC50 (human MC3R) was over 10000 nM and the “MC4R selectivity vs MC3R” value (human MC3R) was “Not active”. For the same compound, the “MC4R selectivity vs MC1R” value (human MC1R) was “Not active”.

For `CC1(C)NC(=O)CSC[C@@H](C(N)=O)NC(=O)[C@H](Cc2c[nH]c3ccccc23)NC(=O)[C@H](CCCNC(=N)N)NC(=O)[C@@H](Cc2ccccc2)NC(=O)[C@H](CCCNC(N)=O)NC1=O` [CTX-1649, Thioether-cyclo(Aib-Cit-D-Phe-Arg-Trp-Cys)] ({CH2CO}-[Aib][Cit][dF]RWC-NH2; thioether N-6), the Emax (human MC4R) was 97%, the Emax (human MC3R) was 79% and the “MC4R selectivity vs MC3R” value (human MC3R) was 72. The “MC4R selectivity vs MC1R” value (human MC1R) was 1652.

For `CCCC[C@H](NC(=O)[C@H](CCCNC(=N)N)NC(C)=O)C(=O)N[C@H]1CSSC[C@@H](C(N)=O)NC(=O)[C@H](Cc2c[nH]c3ccccc23)NC(=O)[C@H](CCCNC(=N)N)NC(=O)[C@@H](Cc2ccccc2)NC(=O)[C@H](Cc2cccnc2)NC1=O` [CTX-1620, Arg-Nle-cyclo(Cys-Pal(3′)-D-Phe-Arg-Trp-Cys)] (Ac-R[Nle]C[3Pal][dF]RWC-NH2; disulfide 3-8 (inferred)), the Emax (human MC4R) was 91%, the Emax (human MC3R) was 39% and the “MC4R selectivity vs MC3R” value (human MC3R) was 12. The “MC4R selectivity vs MC1R” value (human MC1R) was 47.

`CC[C@H]1NC(=O)[C@@H](NC(=O)[C@H](CCCNC(=N)N)NC(C)=O)CSSC[C@@H](C(N)=O)NC(=O)[C@H](Cc2c[nH]c3ccccc23)NC(=O)[C@H](CCCNC(=N)N)NC(=O)[C@@H](Cc2ccccc2)NC(=O)[C@H](Cc2c[nH]cn2)NC1=O` [CTX-1295, Arg-cyclo(Cys-D-Abu-His-D-Phe-Arg-Trp-Cys)] was tested, and the Emax (human MC4R) was 102%, the EC50 (human MC4R) was 0.25 nM and the Emax (human MC3R) was 97%. The EC50 (human MC3R) was 1.6 nM, the “MC4R selectivity vs MC3R” value (human MC3R) was 6.31 and the “MC4R selectivity vs MC1R” value (human MC1R) was 2.79.

With `CC(=O)N[C@@H](CCCNC(=N)N)C(=O)N[C@H]1CSSC[C@@H](C(N)=O)NC(=O)[C@H](Cc2c[nH]c3ccccc23)NC(=O)[C@H](CCCNC(N)=O)NC(=O)[C@@H](Cc2ccccc2)NC(=O)[C@H](CCCNC(=N)N)NC(=O)C(C)(C)NC1=O` [CTX-1270, Arg-cyclo(Cys-Aib-Arg-D-Phe-Cit-Trp-Cys)] (Ac-RC[Aib]R[dF][Cit]WC-NH2; disulfide 2-8) the Emax (human MC4R) was 98%, the Emax (human MC3R) was 14% and the EC50 (human MC3R) was 52 nM. The “MC4R selectivity vs MC3R” value (human MC3R) was 1.88 and the “MC4R selectivity vs MC1R” value (human MC1R) was 2.49.

`CC(=O)N[C@@H](CCCNC(=N)N)C(=O)N[C@H]1CSSC[C@@H](C(N)=O)NC(=O)[C@H](Cc2ccccc2)NC(=O)[C@H](CCCNC(=N)N)NC(=O)[C@@H](Cc2ccccc2)NC(=O)[C@H](CCCN)NC(=O)C(C)(C)NC1=O` [CTX-1602, Arg-cyclo(Cys-Aib-Orn-D-Phe-Arg-Phe-Cys)] (Ac-RC[Aib][Orn][dF]RFC-NH2; disulfide 2-8) was tested, and the Emax (human MC4R) was 97%, the Emax (human MC3R) was 80% and the “MC4R selectivity vs MC3R” value (human MC3R) was 3.44. For the same compound, the “MC4R selectivity vs MC1R” value (human MC1R) was 3.65.

`CCCC[C@H](NC(=O)[C@H](CCCNC(=N)N)NC(C)=O)C(=O)N[C@H]1CSSC[C@@H](C(N)=O)NC(=O)[C@H](Cc2c[nH]c3ccccc23)NC(=O)[C@H](CCCNC(=N)N)NC(=O)[C@@H](Cc2ccccc2)NC(=O)[C@H](Cc2ccncc2)NC1=O` [CTX-1621, Arg-Nle-cyclo(Cys-Pal(4′)-D-Phe-Arg-Trp-Cys)] (Ac-R[Nle]C[4Pal][dF]RWC-NH2; disulfide 3-8 (inferred)) gave an Emax (human MC4R) of 92%, an EC50 (human MC4R) of 2.9 nM and an Emax (human MC3R) of 15%. For the same compound, the “MC4R selectivity vs MC3R” value (human MC3R) was 13 and the “MC4R selectivity vs MC1R” value (human MC1R) was 82.

In the case of `CC(=O)N[C@@H](CCCNC(=N)N)C(=O)N[C@H]1CSSC[C@@H](C(N)=O)NC(=O)[C@H](Cc2ccccc2)NC(=O)[C@H](CCCNC(=N)N)NC(=O)[C@@H](Cc2ccccc2)NC(=O)[C@H](Cc2ccccn2)NC(=O)C(C)(C)NC1=O` [CTX-1604, Arg-cyclo(Cys-Aib-Pal(2′)-D-Phe-Arg-Phe-Cys)] (Ac-RC[Aib][2Pal][dF]RFC-NH2; disulfide 2-8 (inferred)), the Emax (human MC4R) is reported as 96%, the Emax (human MC3R) is reported as 12% and the “MC4R selectivity vs MC3R” value (human MC3R) is reported as 0.11. For the same compound, the “MC4R selectivity vs MC1R” value (human MC1R) was 3.66.

`CC1(C)NC(=O)CSC[C@@H](C(N)=O)NC(=O)[C@H](Cc2ccccc2)NC(=O)[C@H](CCCNC(=N)N)NC(=O)[C@@H](Cc2ccccc2)NC(=O)[C@H](Cc2c[nH]cn2)NC1=O` [CTX-1650, Thioether-cyclo(Aib-His-D-Phe-Arg-Phe-Cys)] ({CH2CO}-[Aib]H[dF]RFC-NH2; thioether N-6) gave an Emax (human MC4R) of 113%, an EC50 (human MC4R) of 288 nM and an Emax (human MC3R) of 125%. For the same compound, the “MC4R selectivity vs MC3R” value (human MC3R) was 53 and the “MC4R selectivity vs MC1R” value (human MC1R) was 0.95.

Compound `CCCC[C@H](NC(=O)[C@H](CCCNC(=N)N)NC(C)=O)C(=O)N[C@H]1CSSC[C@@H](C(N)=O)NC(=O)[C@H](Cc2ccccc2)NC(=O)[C@H](CCCNC(=N)N)NC(=O)[C@@H](Cc2ccccc2)NC(=O)[C@H](CCCNC(=N)N)NC1=O` [CTX-1622, Arg-Nle-cyclo(Cys-Arg-D-Phe-Arg-Phe-Cys)] (Ac-R[Nle]CR[dF]RFC-NH2; disulfide 3-8 (inferred)) has an Emax (human MC4R) of 101%, an Emax (human MC3R) of 100% and an EC50 (human MC3R) of 13 nM. For the same compound, the “MC4R selectivity vs MC3R” value (human MC3R) was 0.32 and the “MC4R selectivity vs MC1R” value (human MC1R) was 0.39.

With `N=C(N)NCCC[C@@H]1NC(=O)[C@@H](Cc2ccccc2)NC(=O)[C@H](CCCNC(N)=O)NC(=O)CNC(=O)CSC[C@@H](C(N)=O)NC(=O)[C@H](Cc2c[nH]c3ccccc23)NC1=O` [CTX-1646, Thioether-cyclo(Gly-Cit-D-Phe-Arg-Trp-Cys)] ({CH2CO}-G[Cit][dF]RWC-NH2; thioether N-6) the Emax (human MC4R) was 103%, the EC50 (human MC4R) was 13 nM and the Emax (human MC3R) was 70%. For the same compound, the “MC4R selectivity vs MC3R” value (human MC3R) was 193 and the “MC4R selectivity vs MC1R” value (human MC1R) was over 770.

`CC(=O)N[C@@H](CCCNC(=N)N)C(=O)N[C@H]1CSSC[C@@H](C(N)=O)NC(=O)[C@@H](Cc2c[nH]c3ccccc23)NC(=O)[C@H](CCCNC(=N)N)NC(=O)[C@@H](Cc2ccccc2)NC(=O)[C@H](CCCNC(=N)N)NC(=O)[C@@H](C)NC1=O` [CTX-1263, Arg-cyclo(Cys-D-Ala-Arg-D-Phe-Arg-D-Trp-Cys)] (Ac-RC[dA]R[dF]R[dW]C-NH2; disulfide 2-8) showed an Emax (human MC4R) of 93%, an Emax (human MC3R) of 69% and an EC50 (human MC3R) of 11 nM. The “MC4R selectivity vs MC3R” value (human MC3R) was 1.62 and the “MC4R selectivity vs MC1R” value (human MC1R) was 1.73.

`CCCC[C@H](NC(=O)[C@H](CCCNC(=N)N)NC(C)=O)C(=O)N[C@H]1CSSC[C@@H](C(N)=O)NC(=O)[C@H](Cc2c[nH]c3ccccc23)NC(=O)[C@H](CCCNC(=N)N)NC(=O)[C@H](Cc2ccccc2)NC(=O)[C@H](CCCNC(N)=O)NC1=O` [CTX-1609, Arg-Nle-cyclo(Cys-Cit-Phe-Arg-Trp-Cys)] (Ac-R[Nle]C[Cit]FRWC-NH2; disulfide 3-8 (inferred)) was tested, and the Emax (human MC4R) was 96%, the Emax (human MC3R) was 65% and the “MC4R selectivity vs MC3R” value (human MC3R) was 4.72. The “MC4R selectivity vs MC1R” value (human MC1R) was 4.15.
